Test results as given in patent publication US12263175B2, “Optimised dosage of diaminophenothiazines in populations” (WisTa Laboratories Ltd., priority 2018, dated 2025).

Test system: tau transgenic mouse model
Assay: Tau transgenic mouse model, spatial learning memory after pre-treatment with symptomatic drugs
Assay type: in vivo
Source text: As is evident from the foregoing, there is a reduction in the maximum effect of LMTM when it is combined with symptomatic treatments. It should be noted however, that this relates to a context in which patients have received LMTM against a background of chronic pre-treatment with symptomatic drugs. The mechanism of this has been elucidated in a series of experiments in a well characterised tau transgenic mouse model.

CN(C)c1ccc2c(c1)Sc1cc(N(C)C)ccc1N2 [LMTM, leuco-methylthioninium bis(hydromethanesulfonate)]
Effect on spatial learning memory (chronic pre-treatment with rivastigmine): elimination of the beneficial effect | Effect on spatial learning memory (pre-treatment with memantine): eliminated the effect
